US20090298708A1, “2'-DEOXY-2'-FLUORO-BETA-D-ARABINONUCLEOSIDE 5'-TRIPHOSPHATES AND THEIR USE IN ENZYMATIC NUCLEIC ACID SYNTHESIS” (priority 2006, published 2009)
“Also recorded” adds a separate entry of the source. Marks after values point to notes of the source that are not given here.

How the values were obtained:
[1] = molecular target: T1, Deep Vent® (3′→5′ exo-) DNA polymerase (DV) (Pyrococcus sp., UniProt Q51334, D141A/DEL493-1029/E143A); test: Primer extension assay with Deep Vent (exo-) DNA polymerase; format: biochemical, Pyrococcus species GB-D; parameters: key to Incorporation of three 2′F-araTTP / 2′F-araCTP (incorporation efficiency) / Enzymatic activity during primer extension reactions: ++++: excellent (no pausing observed); +++: very good (with slight pausing); ++: Good, full-length products with significant pausing; +: significant pausing, no full-length product but at least one 2′F-araN incorporation detected; settings: for Incorporation of three 2′F-araTTP / 2′F-araCTP (incorporation efficiency): DNA template PF22 (2′F-araTTP) or PF24 (2′F-araCTP); for Order of efficiency of incorporation: DNA template PF22 (T/U triphosphates) or PF24 (C triphosphates), three contiguous units; for Enzymatic activity during primer extension reactions: plus dATP, dGTP
T1 construct: purchased New England Biolabs; host or cells: E. coli
Method: (§1) Various different types of DNA polymerases were assessed, including the mesophilic enzyme Klenow fragment of DNA pol I (3′→5′ exo-) (“Kf”); the thermophilic DNA polymerases DV, 9N, Taq, Bst pol I, Th and Ph; and the viral reverse transcriptases HIV RT and MMLV. Kf is a genetically engineered proteolytic product of E. coli pol A gene that encodes DNA polymerase I which retains polymerase activity but has a mutation which abolishes the 3′->5′ and 5′->3′ exonuclease activities. DV is a genetically engineered DNA polymerase purified from a strain of E. coli that carries the DV DNA polymerase gene from Pyrococcus species GB-D. The gene has been engineered to eliminate 3′->5′ proofreading exonuclease activity. 9N is a genetically engineered DNA polymerase that has decreased 3′->5′ proofreading exonuclease activity. 9N is purified from a strain of E. coli that carries a modified 9° N DNA polymerase gene from Thermococcus species (strain 9° N-7). […] Taq polymerase is isolated from E. coli engineered to express Taq polymerase from Thermus aquaticus YT-1. Bst DNA polymerase (Large fragment) is a genetically engineered polymerase that consists of the portion of the Bacillus stearothemmophilus DNA polymerase protein responsible for 5′->3′ polymerase activity but lacks the 5′->3′ exonuclease domain. Th DNA polymerase is a genetically engineered, archaeon-derived DNA polymerase that is a variant of the 9N polymerase described above. The recombinant protein is isolated from E. coli engineered to express 9° NA485L (exo-) DNA polymerase gene, a genetic variant of the native DNA polymerase from Thermococcus species 9° N-7. Ph is a recombinant DNA polymerase that consists of a novel Pyrococcus-like enzyme fused with a double-strand DNA-binding and processivity-enhancing domain.
(§2) Primer extension assays were used to assess the incorporation of 2′F-araNTP on the various DNA templates (Table 1). The DNA primer (PF20) was first radioactively labeled at the 5′-hydroxyl terminus with a radioactive phosphorus probe and the enzyme T4 polynucleotide kinase (T4 PNK) (see Example 1 for General Methods). To assess the incorporation of 2′F-araNTPs, the primer and template were annealed, and the nucleoside 5′-triphosphates added in the presence of enzyme under the conditions specified in Table 2. Time points were obtained by analyzing small aliquots from the reaction mixture through polyacryamide gel electrophoresis (PAGE) and autoradiography.
(§3) Unless otherwise noticed in the Examples described below, the conditions used in the primer extension assays, such as dNTP concentration, reaction temperatures, concentration of Mg^2+, and reaction buffers (provided by the manufacturers, except for the HIV buffer which was prepared in-house) are shown in Table 2.
(§4) Primer extension assays were used to assess the incorporation of 2′F-araTTP on the DNA template (PF22). The DNA primer (PF20) was first radioactively labeled at the 5′-hydroxyl terminus with a radioactive phosphorus probe and the enzyme T4 polynucleotide kinase (T4 PNK) according to the manufacturer's specifications (MBI Fermentas Life Sciences, Burlington, ON). Incorporation of the ^32P label was accomplished in reaction mixtures consisting of DNA substrate (200 pmol), 2 μl loxreaction buffer (Buffer A for forward reaction: 500 mM Tris-HCl, pH 7.6 at 25° C., 100 mM MgCl2, 50 mM DTT, 1 mM spermidine and 1 mM EDTA), 1 μl T4 PNK enzyme solution (10 U/1 μl in a solution of 20 mM Tris-HCl, pH 7.5, 25 mM KCl, 0.1 mM EDTA, 2 mM DTT and 50% glycerol), 6 μl [γ-^32P]-ATP solution (6000 Ci/mmol, 10 mCi/ml; Amersham Biosciences, Inc.) and autoclaved sterile water to a final volume of 20 μl. The reaction mixture was incubated for about 45-60 min at 37° C., followed by a second incubation for 10 min at 95° C. to heat denature and deactivate the kinase enzyme.

[2] = molecular target: T2, 9° Nm™ DNA polymerase (9N) (Thermococcus sp., UniProt Q56366, E143D); test: Primer extension assay with 9°Nm DNA polymerase; format: biochemical, Thermococcus species (strain 9° N-7); parameters: key to Incorporation of three 2′F-araTTP / 2′F-araCTP (incorporation efficiency) / Enzymatic activity during primer extension reactions: ++++: excellent (no pausing observed); +++: very good (with slight pausing); ++: Good, full-length products with significant pausing; +: significant pausing, no full-length product but at least one 2′F-araN incorporation detected; settings: for Incorporation of three 2′F-araTTP / 2′F-araCTP (incorporation efficiency): DNA template PF22 (2′F-araTTP) or PF24 (2′F-araCTP); for Order of efficiency of incorporation: DNA template PF22 (T/U triphosphates) or PF24 (C triphosphates), three contiguous units; for full-length products generated: DNA template PF22, within 2 min, without pausing; for Enzymatic activity during primer extension reactions: plus dATP, dGTP
T2 construct: purchased New England Biolabs; host or cells: E. coli
Method: as §1, §2, §3, §4

[3] = Example 2, DNA template PF22, 3x 2′F-araTTP, dCTP, at 37° C.
[4] = Example 3, DNA template PF24, 3x 2′F-araCTP, dTTP, 55° C.

| Structure (SMILES) | Incorporation of three 2′F-araTTP / 2′F-araCTP (incorporation efficiency) ([1]; 37° C.) | Order of efficiency of incorporation ([1]; 55° C.) | Incorporation of three 2′F-araTTP / 2′F-araCTP (incorporation efficiency) ([2]; 37° C.) | Order of efficiency of incorporation ([2]; 55° C.) | full-length products generated ([2]; 55° C.) | other results |
| --- | --- | --- | --- | --- | --- | --- |
| Cc1cn([C@@H]2O[C@H](COP(=O)(O)OP(=O)(O)OP(=O)(O)O)[C@@H](O)[C@@H]2F)c(=O)[nH]c1=O [2′F-araTTP, 1-(2-deoxy-2-fluoro-β-D-arabino-furanosyl)thymine 5′-triphosphate] | ++++ | dTTP~2′F-araTTP > 2′F-rUTP | ++++ | dTTP~2′F-araTTP > 2′F-rUTP | ca. 100% | yield of full length product ([1]; DNA template PF22, after 5 min, 55° C.): nearly quantitative yield; also recorded: near quantitative yield; Enzymatic activity during primer extension reactions [1, 3]: +++^b; Enzymatic activity during primer extension reactions [2, 3]: +++^b |
| Nc1ccn([C@H]2C[C@H](O)[C@@H](COP(=O)(O)OP(=O)(O)OP(=O)(O)O)O2)c(=O)n1 [dCTP] | – | dCTP~2′F-rCTP~2′F-araCTP | – | dCTP~2′F-araCTP~2′F-rCTP | – | – |
| O=c1ccn([C@@H]2O[C@H](COP(=O)(O)OP(=O)(O)OP(=O)(O)O)[C@@H](O)[C@H]2F)c(=O)[nH]1 [2′F-rUTP, 1-(2-deoxy-2-fluoro-β-D-ribo-furanosyl)uracil 5′-triphosphate, reference compound] | – | dTTP~2′F-araTTP > 2′F-rUTP | – | dTTP~2′F-araTTP > 2′F-rUTP | – | desired full-length product ([1]; DNA template PF22, after 9.5 h, 55° C.): 20%; expected full-length product ([2]; DNA template PF22, after one hour, 55° C.): ca. 20% |
| Nc1ccn([C@@H]2O[C@H](COP(=O)(O)OP(=O)(O)OP(=O)(O)O)[C@@H](O)[C@@H]2F)c(=O)n1 [2′F-araCTP, 1-(2-deoxy-2-fluoro-β-D-arabinofuranosyl)cytosine 5′-triphosphate] | +++ | dCTP~2′F-rCTP~2′F-araCTP | None | dCTP~2′F-araCTP~2′F-rCTP | – | Incorporation of three 2′F-araTTP / 2′F-araCTP (incorporation efficiency) ([1]; 55° C.): ++++; Enzymatic activity during primer extension reactions [1, 4]: ++++; Incorporation of three 2′F-araTTP / 2′F-araCTP (incorporation efficiency) ([2]; 55° C.): ++++; Enzymatic activity during primer extension reactions [2, 4]: +++ |
| Cc1cn([C@H]2C[C@H](O)[C@@H](COP(=O)(O)OP(=O)(O)OP(=O)(O)O)O2)c(=O)[nH]c1=O [dTTP, reference compound] | – | dTTP~2′F-araTTP > 2′F-rUTP | – | dTTP~2′F-araTTP > 2′F-rUTP | ca. 100% | – |
| Nc1ccn([C@@H]2O[C@H](COP(=O)(O)OP(=O)(O)OP(=O)(O)O)[C@@H](O)[C@H]2F)c(=O)n1 [2′F-rCTP, 1-(2-deoxy-2-fluoro-β-D-ribofuranosyl) cytosine 5′-triphosphate, reference compound] | – | dCTP~2′F-rCTP~2′F-araCTP | – | dCTP~2′F-araCTP~2′F-rCTP | – | – |
